Source: patent US20260356823A1, “SODIUM CHANNEL REGULATOR AND USE THEREOF” (SHANGHAI HUILUN PHARMACEUTICAL CO., LTD., priority 2022, published 2026)

Each molecule was assayed against T1, human Nav1.8 (Homo sapiens, UniProt Q9Y5Y9) (assay: In vitro inhibition of Nav1.8, manual patch clamp on HEK293 cells stably expressing human Nav1.8). Details: HEK293, 100 nM, human Nav1.8, manual patch clamp, read-out: Inhibitory activity (inhibition/% at 100 nM concentration).
T1 construct: expressed in transfected cells
T1 sequence (Q9Y5Y9 whole entry): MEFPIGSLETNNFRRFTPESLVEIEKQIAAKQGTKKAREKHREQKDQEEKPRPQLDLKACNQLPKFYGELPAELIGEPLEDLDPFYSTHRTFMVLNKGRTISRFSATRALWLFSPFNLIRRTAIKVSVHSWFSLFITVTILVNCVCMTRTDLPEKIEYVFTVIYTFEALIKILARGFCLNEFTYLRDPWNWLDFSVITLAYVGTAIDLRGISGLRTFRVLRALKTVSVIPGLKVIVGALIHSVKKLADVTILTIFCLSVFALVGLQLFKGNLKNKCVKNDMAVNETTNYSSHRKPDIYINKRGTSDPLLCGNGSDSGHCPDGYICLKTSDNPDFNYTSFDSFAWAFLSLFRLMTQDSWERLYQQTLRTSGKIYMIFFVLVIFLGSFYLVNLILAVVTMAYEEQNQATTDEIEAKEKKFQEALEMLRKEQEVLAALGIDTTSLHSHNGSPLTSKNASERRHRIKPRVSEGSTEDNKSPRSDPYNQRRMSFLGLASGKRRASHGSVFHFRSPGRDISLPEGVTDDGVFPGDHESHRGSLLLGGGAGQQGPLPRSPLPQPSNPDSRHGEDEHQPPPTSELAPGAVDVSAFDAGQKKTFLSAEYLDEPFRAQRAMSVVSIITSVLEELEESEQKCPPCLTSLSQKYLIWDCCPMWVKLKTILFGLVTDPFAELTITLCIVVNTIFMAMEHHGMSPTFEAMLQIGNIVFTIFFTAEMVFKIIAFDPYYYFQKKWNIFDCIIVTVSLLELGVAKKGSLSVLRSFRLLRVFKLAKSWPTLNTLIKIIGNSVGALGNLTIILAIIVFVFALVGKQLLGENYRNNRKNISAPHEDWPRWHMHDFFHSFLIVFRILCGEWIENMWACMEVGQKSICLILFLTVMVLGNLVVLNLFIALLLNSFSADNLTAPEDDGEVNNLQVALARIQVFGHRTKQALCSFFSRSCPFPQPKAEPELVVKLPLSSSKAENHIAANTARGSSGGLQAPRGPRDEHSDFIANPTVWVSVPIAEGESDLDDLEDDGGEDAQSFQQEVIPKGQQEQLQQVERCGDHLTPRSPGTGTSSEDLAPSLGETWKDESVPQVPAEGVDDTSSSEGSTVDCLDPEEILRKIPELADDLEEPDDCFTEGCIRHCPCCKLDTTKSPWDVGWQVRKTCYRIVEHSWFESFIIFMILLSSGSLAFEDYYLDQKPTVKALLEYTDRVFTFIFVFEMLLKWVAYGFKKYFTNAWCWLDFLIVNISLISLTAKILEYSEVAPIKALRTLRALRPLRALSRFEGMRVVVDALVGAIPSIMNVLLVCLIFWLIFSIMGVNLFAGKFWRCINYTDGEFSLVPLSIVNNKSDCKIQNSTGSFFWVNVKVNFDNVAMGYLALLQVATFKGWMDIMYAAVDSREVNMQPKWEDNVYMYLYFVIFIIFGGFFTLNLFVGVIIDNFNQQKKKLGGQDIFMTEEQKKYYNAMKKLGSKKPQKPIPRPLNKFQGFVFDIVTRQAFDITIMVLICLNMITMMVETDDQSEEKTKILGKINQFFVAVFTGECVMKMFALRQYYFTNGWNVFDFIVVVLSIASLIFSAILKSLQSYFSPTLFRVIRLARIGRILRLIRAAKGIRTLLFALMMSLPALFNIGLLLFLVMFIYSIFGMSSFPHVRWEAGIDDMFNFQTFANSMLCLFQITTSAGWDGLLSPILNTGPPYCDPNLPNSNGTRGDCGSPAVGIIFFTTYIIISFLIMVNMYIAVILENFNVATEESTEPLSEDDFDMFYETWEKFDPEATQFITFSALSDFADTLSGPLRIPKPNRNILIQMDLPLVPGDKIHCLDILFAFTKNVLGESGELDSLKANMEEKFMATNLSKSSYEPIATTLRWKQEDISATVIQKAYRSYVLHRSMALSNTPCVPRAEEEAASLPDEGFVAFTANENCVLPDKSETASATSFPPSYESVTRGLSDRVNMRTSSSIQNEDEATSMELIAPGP
Format: cell-based
Description: Bioactivity Test 1: In Vitro Inhibition of Nav1.8 by the Compound
By using a manual patch clamp on HEK293 cells stably expressing human Nav1.8, currents on Nav1.8 before and after administration of the compound were compared after the currents on Nav1.8 were stable, to obtain the effect of the compound on the Nav1.8 channel.
The to-be-tested compound was dissolved in DMSO to prepare a 9 mM stock solution, which was taken and dissolved in extracellular fluid at a desired concentration on the day of testing. The extracellular fluid included the following ingredients (mM): NaCl, 137; KCl, 4; CaCl2, 1.8; MgCl2, 1; HEPES, 10; glucose, 10; and pH 7.4 (NaOH titration). All reagents were purchased from Sigma (St. Louis, MO).
The cells were clamped at −80 mV and depolarized with a sustained 10 ms square wave to 10 mV to obtain a current on Nav1.8. This process was repeated every 5 seconds. A maximum current caused by the square wave was detected. After the current is stable, the to-be-tested compound (dissolved in the extracellular fluid at the desired concentration) was perfused. After the current is stable, the strength of blocking Nav1.8 by the compound was calculated based on the currents before and after perfusion of the compound. pCLAMP 10 (Molecular Devices, Union City, CA) was used. That the current is stable means that the current changes over time within a limited range.
`COc1c(C2[C@H](C(=O)Nc3ccnc(S(=O)(=O)NCC(F)(F)F)c3)O[C@@](C)(C(F)(F)F)[C@H]2C)ccc(F)c1F` (relative stereo) [Example 84, rel-(2R,3S,4S,5R)-3-(3,4-difluoro-2-methoxyphenyl)-4,5-dimethyl-N-(2-(N-(2,2,2-trifluoroethyl)sulfamoyl)pyridin-4-yl)-5-trifluoromethyl tetrahydrofuran-2-carboxamide] gave an inhibition at 0.1 µM of at least 50%. Molecule `COc1c([C@H]2[C@H](C(=O)Nc3ccc4c(c3)C(=O)NC4=O)O[C@@](C)(C(F)(F)F)[C@H]2C)ccc(F)c1F` (relative stereo) [Example 10, rel-(2R,3S,4S,5R)-3-(3,4-difluoro-2-methoxyphenyl)-N-(1,3-dioxo-2,3-dihydro-1H-isoindol-5-yl)-4,5-dimethyl-5-(trifluoromethyl)tetrahydrofuran-2-carboxamide] has an inhibition at 0.1 µM of at least 50%. For `COc1c(C2C(C(=O)Nc3ccnc(OCC(O)CO)c3)OC3(C(F)(F)F)CCC23C)ccc(F)c1F` [Example 95, rel-(1R,3R,4S,5R)-4-(3,4-difluoro-2-methoxyphenyl)-N-(2-(S)-2,3-dihydroxypropoxypyridin-4-yl)-5-methyl-1-trifluoromethyl-2-oxabicyclo[3.2.0]heptane-3-carboxamide], the inhibition at 0.1 µM was at least 50%. `CN=S(C)(=O)c1cc(NC(=O)C2O[C@]3(C(F)(F)F)CC[C@]3(C)[C@H]2c2ccc(F)c(F)c2OC)ccn1` (relative stereo) [Example 94, rel-(1R,3R,4S,5R)-4-(3,4-difluoro-2-methoxyphenyl)-N-(2-(N,S-dimethylsulfonyl)pyridin-4-yl)-5-methyl-1-(trifluoromethyl)-2-oxabicyclo[3.2.0]heptane-3-carboxamide] was tested, and the inhibition at 0.1 µM was at least 50%. `COc1c([C@H]2[C@H](C(=O)Nc3ccc(C(N)=O)c(C(N)=O)c3)O[C@@](C)(C(F)(F)F)[C@H]2C)ccc(F)c1F` (relative stereo) [Example 30, rel-(2R,3S,4S,5R)-4-({[3-(3,4-difluoro-2-methoxyphenyl)-4,5-dimethyl-5-(trifluoromethyl)tetrahydrofuran-2-yl]carbonyl}amino)benzene-1,2-dicarboxamide] was tested, and the inhibition at 0.1 µM was at least 50%. In the case of `COc1c(C2C(C(=O)Nc3ccc(C(N)=O)c(C(N)=O)c3)OC3(C(F)(F)F)CCC23C)ccc(F)c1F` [Example 86, rel-4-((1R,3R,4S,5R)-4-(3,4-difluoro-2-methoxyphenyl)-5-methyl-1-(trifluoromethyl)-2-oxabicyclo[3.2.0]heptane-3-formylamino)phthalamide], the inhibition at 0.1 µM is reported as at least 50%. Work on `COc1c([C@H]2[C@H](C(=O)Nc3ccc4c(c3)C(=O)NC4)O[C@@](C)(C(F)(F)F)[C@H]2C)ccc(F)c1F` (relative stereo) [Example 1, rel-(2R,3S,4S,5R)-3-(3,4-difluoro-2-methoxyphenyl)-4,5-dimethyl-N-(3-oxoisoindolin-5-yl)-5-(trifluoromethyl)tetrahydrofuran-2-carboxamide] yielded an inhibition at 0.1 µM of at least 50%. For `COc1c([C@H]2C(C(=O)Nc3ccnc(OC[C@H](O)CO)c3)O[C@]3(C(F)(F)F)CC[C@]23C)ccc(F)c1F` (relative stereo) [Example 96, rel-(1R,3R,4S,5R)-4-(3,4-difluoro-2-methoxyphenyl)-N-(2-(R)-2,3-dihydroxypropoxypyridin-4-yl)-5-methyl-1-trifluoromethyl-2-oxabicyclo[3.2.0]heptane-3-carboxamide], the inhibition at 0.1 µM was at least 50%. In the case of `COc1c([C@H]2[C@H](C(=O)Nc3ccc(C(O)CO)nc3)O[C@]3(C(F)(F)F)CC[C@]23C)ccc(F)c1F` (relative stereo) [Example 98, rel-(1R,3R,4S,5R)-4-(3,4-difluoro-2-methoxyphenyl)-N-(6-(1,2-dihydroxyethyl)pyridin-3-yl)-5-methyl-1-trifluoromethyl-2-oxabicyclo[3.2.0]heptane-3-carboxamide], the inhibition at 0.1 µM is reported as at least 50%. `COc1c([C@H]2C(C(=O)Nc3ccnc(S(C)(=N)=O)c3)O[C@]3(C(F)(F)F)CC[C@]23C)ccc(F)c1F` (relative stereo) [Example 93, rel-(1R,3R,4S,5R)-4-(3,4-difluoro-2-methoxyphenyl)-5-methyl-N-(2-(S-methylsulfoximine)pyridin-4-yl)-1-(trifluoromethyl)-2-oxabicyclo[3.2.0]heptane-3-carboxamide] gave an inhibition at 0.1 µM of at least 50%. `COc1c([C@H]2C(C(=O)Nc3ccc4c(c3)S(=O)(=O)NC4=O)O[C@@](C)(C(F)(F)F)[C@H]2C)ccc(F)c1F` (relative stereo) [Example 79, rel-(2R,3S,4S,5)-3-(3,4-difluoro-2-methoxyphenyl)-4,5-dimethyl-5-(trifluoromethyl)-N-(1,1,3-trioxo-2,3-dihydro-1λ6-benzo[d][1,2]thiazol-6-yl)tetrahydrofuran-2-carboxamide] showed an inhibition at 0.1 µM of at least 50%. For `COc1c([C@H]2[C@H](C(=O)Nc3ccc4c(=O)[nH][nH]c(=O)c4c3)O[C@@](C)(C(F)(F)F)[C@H]2C)ccc(F)c1F` (relative stereo) [Example 12], the inhibition at 0.1 µM was at least 50%. `COc1c([C@H]2[C@H](C(=O)Nc3ccnc(C(O)CF)c3)O[C@]3(C(F)(F)F)CC[C@]23C)ccc(F)c1F` (relative stereo) [Example 89, rel-(1R,3R,4S,5R)-4-(3,4-difluoro-2-methoxyphenyl)-N-(2-(2-fluoro-1-hydroxyethyl)pyridin-4-yl)-5-methyl-1-(trifluoromethyl)-2-oxabicyclo[3.2.0]heptane-3-carboxamide] gave an inhibition at 0.1 µM of at least 50%. `COc1c([C@H]2[C@H](C(=O)Nc3cc(F)[nH]c(=O)c3)O[C@@](C)(C(F)(F)F)[C@H]2C)ccc(F)c1F` (relative stereo) [Example 24, rel-(2R,3S,4S,5R)-3-(3,4-difluoro-2-methoxyphenyl)-N-(6-fluoro-2-oxo-1H-pyridin-4-yl)-4,5-dimethyl-5-(trifluoromethyl)tetrahydrofuran-2-carboxamide] gave an inhibition at 0.1 µM of at least 50%. In the case of `COc1c([C@H]2[C@H](C(=O)Nc3ccc(C(N)=O)nc3)O[C@]3(C(F)(F)F)CC[C@]23C)ccc(F)c1F` [Example 97, 5-((1S,3R,4S,5S)-4-(3,4-difluoro-2-methoxyphenyl)-5-methyl-1-(trifluoromethyl)-2-oxabicyclo[3.2.0]heptane-3-formylamino)pyridinecarboxamide], the inhibition at 0.1 µM is reported as at least 50%. `COc1c(C2C(C(=O)Nc3ccc(C(N)=O)c(C(N)=O)c3)OC(C)(C(F)(F)F)C2C)ccc(F)c1F` (single isomer, unassigned) [Example 30-1] showed an inhibition at 0.1 µM of under 50%. `COc1c([C@H]2[C@H](C(=O)Nc3ccnc(C(N)=S)c3)O[C@@](C)(C(F)(F)F)[C@H]2C)ccc(F)c1F` (relative stereo) [Example 22, rel-(2R,3S,4S,5R)—N-[2-(aminothiomethylidene)pyridin-4-yl]-3-(3,4-difluoro-2-methoxyphenyl)-4,5-dimethyl-5-(trifluoromethyl)tetrahydrofuran-2-carboxamide] gave an inhibition at 0.1 µM of at least 50%. `COc1c([C@H]2[C@H](C(=O)Nc3ccnc(C(=O)N4CCCO4)c3)O[C@@](C)(C(F)(F)F)[C@H]2C)ccc(F)c1F` (relative stereo) [Example 32, rel-(2R,3S,4S,5R)-3-(3,4-difluoro-2-methoxyphenyl)-4,5-dimethyl-N-[2-(tetrahydroisoxazol-2-ylcarbonyl)pyridin-4-yl]-5-(trifluoromethyl)tetrahydrofuran-2-carboxamide] gave an inhibition at 0.1 µM of at least 50%.
